Assay results as given in patent EP0429372A1, “2-Azolyl nicotinate derivatives as herbicides” (RHONE-POULENC AGROCHIMIE, priority 1989, dated 1991).

How the values were obtained:
Format in all cases: in vivo
mauvaises herbes [1] = experiment: Procedure 2 d): weed control, pre-emergence; details: 4000 g/ha (procédé 2D), visual rating 20 to 24 days after spraying, vs control pots
Text: (§1) Des quantités appropriées des composés d'essai ont été dissoutes dans de l'acétone pour obtenir des solutions équivalant à des taux d'application de 250, 1000 ou 4000 g de composé d'essai par hectare (g/ha).
Les graines ont été semées dans des pots en matière plastique de 70 mm de côté et 75 mm de profondeur, dans de la terre non stérile provenant de Boarded Barns Farm ou un type de terre similaire provenant d'une source convenable. Les quantités de graines par pot étaient les suivantes :
Les composés de la présente invention ont été appliqués à la surface du sol, contenant les semences, de la manière décrite dans le paragraphe (a). Un seul pot de chaque plante cultivée et de chaque mauvaise herbe a été attribué à chaque traitement, en association avec des témoins n'ayant pas subi de pulvérisation et des témoins ayant subi une pulvérisation avec de l'acétone seule. Après traitement, les pots ont été maintenus dans une serre et ont été arrosés par aspersion pendant 3 jours, puis par une sous- irrigation controlée. L'évaluation visuelle des dégats infligés aux plantes cultivées a été effectuée 20 à 24 jours après pulvérisation. Les résultats ont été exprimés en pourcentage de réduction de croissance ou d'endommagement des plantes cultivées ou des mauvaises herbes, comparativement aux plantes présentes dans les pots témoins.

mauvaises herbes [2] = details: post-emergence, 4000 g/ha
Text: as §1
Les mauvaises herbes et les plantes cultivées ont été semées directement dans du compost de mise en pot John Innes dans des pots de 75 mm de profondeur et 70 mm de côté, sauf en ce qui concerne l'espèce du genre Amaranthus qui a été repiquée au stade de jeunes plants de semis et transférée dans les pots une semaine avant plulvérisation. Puis les plantes ont été cultivées dans la serre jusqu'à ce qu'elles soient prêtres à subir une pulvérisation avec les composés d'essai. Le nombre de plantes par pot étaient les suivants :
Les composés d'essai ont été appliqués aux plantes de la manière décrite dans le paragraphe (a). Un seul pot de chaque espèce de plante cultivée et de chaque espèce de mauvaise herbe a été attribué à chaque traitement, en association avec des témoins n'ayant pas subi de pulvérisation et des témoins ayant subi une pulvérisation avec de l'acétone seule.
Après traitement, les pots ont été maintenus dans une serre et ont été arrosés une fois par aspersion au bout de 24 heures, puis par sous - irrigation contrôlée. L'évaluation visuelle des dégâts infligés aux plantes cultivées et de la destruction des mauvaises herbes a été effectué 20 à 24 jours après pulvérisation. Les résultats ont été exprimés en pourcentage de réduction de croissance ou d'endommagement des plantes cultivées ou des mauvaises herbes, comparativement aux plantes présentes dans les pots témoins.

Ipomea purpurea = experiment: Example B: post-emergence herbicidal application, pot test; details: 4000 g/ha, 576 h
Text: (§2) Dans des pots de 7 x 7 x 8 cm remplis de terre agricole légère, on sème un nombre de graines déterminé en fonction de l'espèce végétale et de la grosseur de la graine.
(§3) On recouvre ensuite les graines d'une couche de terre d'environ 3 mm d'épaisseur et on laisse germer la graine jusqu'à ce qu'elle donne naissance à une plantule au stade convenable. Le stade de traitement pour les graminées est le stade "deuxième feuille en formation ". Le stade de traitement pour les dicotylédones, est le stade "cotylédons étalés, première feuille vraie en développement".
(§4) Les pots sont alors traités par pulvérisation de bouillie en quantité correspondant à une dose volumique d'application de 500 l/ha et contenant la matière active à la concentration désirée.
(§5) La bouille a été préparée de la même manière qu'à l'exemple A.
(§6) Les pots traités sont ensuite placés dans des bacs destinés à recevoir l'eau d'arrosage, en subirrigation, et maintenus pendant 24 jours à température ambiante sous 70 % d'humidité relative.
(§7) Au bout de 24 jours, on mesure un pourcentage (D) de destruction du nombre de pieds dans le pot traité par rapport au nombre de plantes dans les pots non traités (témoin). On mesure, sur les plantes traitées restantes, le pourcentage de réduction de taille (RT) par rapport aux plantes témoin.
(§8) Le pourcentage du volume foliaire non détruit par le produit est donc donné par la formule : [formula]
(§9) Cette valeur A est transformée en notation de 0 à 5 selon l'échelle suivante :
(§10) Les résultats obtenus sont présentés après le tableau A pour des doses d'application de 4000 g/ha.

Solanum nigrum [3] = experiment: as above; details: 4000 g/ha, 576 h
Text: as §2, §3, §4, §5, §6, §7, §8, §9, §10

Sinapis alba [4] = experiment: as above; details: 4000 g/ha, 576 h
Text: as §2, §3, §4, §5, §6, §7, §8, §9, §10

Digitaria sanguinalis = experiment: as above; details: 4000 g/ha, 576 h
Text: as §2, §3, §4, §5, §6, §7, §8, §9, §10

Lolium multiflorum = experiment: as above; details: 4000 g/ha, 576 h
Text: as §2, §3, §4, §5, §6, §7, §8, §9, §10

Echinochloa crusgalli = experiment: as above; details: 4000 g/ha, 576 h
Text: as §2, §3, §4, §5, §6, §7, §8, §9, §10

Ipomea pupurea = experiment: Example C: selectivity test in major crops, post-emergence application; details: 500 g/ha, 576 h
Text: as §2
as §3, with “formation".” for “formation ".”
as §4
(§11) La bouillie a été préparée de la même manière qu'à l'exemple A.
as §6, §7
(§12) Le pourcentage de volume foliaire non détruit par le produit est donc donné par la formule : [formula]
as §9
(§13) Ainsi, un produit est jugé comme sélectif vis à vis de la culture lorsque la valeur A notée est de 0 ou 1.
(§14) Les résultats obtenus sont présentés dans l'exemple C pour des doses d'application comprises entre 0,5 et 4 kg de matière active par hectare selon les produits.

Solanum nigrum [5] = experiment: as above; details: 500 g/ha, 576 h
Text: as §2
as §3, with “formation".” for “formation ".”
as §4, §11, §6, §7, §12, §9, §13, §14

Zea mays = experiment: as above; details: crop (Maïs), dose 0,5 kg/ha, 24 days, score 0-5, 0 or 1 = selective
Text: as §2
as §3, with “formation".” for “formation ".”
as §4, §11, §6, §7, §12, §9, §13, §14

Oryza sativa = experiment: as above; details: crop (Riz), dose 0,5 kg/ha, 24 days, score 0-5, 0 or 1 = selective
Text: as §2
as §3, with “formation".” for “formation ".”
as §4, §11, §6, §7, §12, §9, §13, §14

Sinapis alba [6] = experiment: as above; details: 500 g/ha, 576 h
Text: as §2
as §3, with “formation".” for “formation ".”
as §4, §11, §6, §7, §12, §9, §13, §14

Sesbania exaltata = experiment: as above; details: 500 g/ha, 576 h
Text: as §2
as §3, with “formation".” for “formation ".”
as §4, §11, §6, §7, §12, §9, §13, §14

Xanthium pennsylvanicum = experiment: as above; details: 500 g/ha, 576 h
Text: as §2
as §3, with “formation".” for “formation ".”
as §4, §11, §6, §7, §12, §9, §13, §14

Triticum aestivum = experiment: as above; details: crop (Blé), dose 0,5 kg/ha, 24 days, score 0-5, 0 or 1 = selective
Text: as §2
as §3, with “formation".” for “formation ".”
as §4, §11, §6, §7, §12, §9, §13, §14
Throughout, for ACTIVITE HERBICIDE DE POST LEVEE O R Y: ranges in brackets are in %.
Throughout, for ACTIVITE HERBICIDE DE POST LEVEE T R Z: ranges in brackets are in %.
Throughout, for ACTIVITE HERBICIDE DE POST LEVEE Z E A: ranges in brackets are in %.

## CCCCCCOC(=O)c1cccnc1-c1nc2ccccc2n1S(=O)(=O)N(C)C [compound 103]
Mauvaises herbes [1]
  réduction de la croissance d'une ou plusieurs des espèces de mauvaises herbes: ≥ 90%
Mauvaises herbes [2]
  destruction d'une ou plusieurs des espèces de mauvaises herbes: ≥ 90%

## CN(C)S(=O)(=O)n1nc(-c2cccc(Cl)c2)nc1-c1ncccc1C(=O)O [compound 9]
Ipomea purpurea
  ACTIVITE DE POST-LEVEE IPO: 3 (30 à 50)
Solanum nigrum [3]
  ACTIVITE DE POST-LEVEE SOL: 3 (30 à 50)
Sinapis alba [4]
  ACTIVITE DE POST-LEVEE SIN: 4 (10 à 30)
Digitaria sanguinalis
  ACTIVITE DE POST-LEVEE DIG: 2 (50 à 70)
Lolium multiflorum
  ACTIVITE DE POST-LEVEE LOL: 0 (90 à 100)
Echinochloa crusgalli
  ACTIVITE DE POST-LEVEE ECH: 2 (50 à 70)
Ipomea pupurea
  ACTIVITE HERBICIDE DE POST LEVEE I P O: 3 (30 à 50)
Solanum nigrum [5]
  ACTIVITE HERBICIDE DE POST LEVEE S O L: 4 (10 à 30)
Zea mays
  ACTIVITE HERBICIDE DE POST LEVEE Z E A: 2 (50 à 70)
Oryza sativa
  ACTIVITE HERBICIDE DE POST LEVEE O R Y: 1 (70 à 90)
Sinapis alba [6]
  ACTIVITE HERBICIDE DE POST LEVEE S I N: 3 (30 à 50)
Sesbania exaltata
  ACTIVITE HERBICIDE DE POST LEVEE S E S: 5 (O à 10)
Xanthium pennsylvanicum
  ACTIVITE HERBICIDE DE POST LEVEE X A N: 3 (30 à 50)
Triticum aestivum
  ACTIVITE HERBICIDE DE POST LEVEE T R Z: 0 (90 à 100)
